SMILES strings stand for the structures. Calls of active or inactive are those of the source. No cut-off for these calls is given here.

Among the data in ChEMBL document CHEMBL1141771, “p-Aminoacetophenonic acids produced by a mangrove endophyte: Streptomyces griseus subsp” (J Nat Prod, 2005) are Activity values, retold here.

Tested on in the first assay: not listed separately
The experiment in a line: Activity of hydroxysteroid dehydrogenase.
With `C/C(=C\C(C)CC(C)C(O)CC(=O)c1ccc(N)cc1)C(=O)O` (stereo not given), the result was inactive.

Turning to `CC(O)C(/C=C/C=C/C(=O)O)C(C)CC(C)C(O)CC(=O)c1ccc(N)cc1` (stereo not given), the result was inactive.

On to `CC(/C=C/C(=O)c1ccc(N)cc1)CC(C)C(=O)O` (stereo not given), for which the outcome was inactive.

Tested on in a further assay: not listed separately
The experiment in a line: Activity of peroxidase.
Regarding `C/C(=C\C(C)CC(C)C(O)CC(=O)c1ccc(N)cc1)C(=O)O` (stereo not given), the outcome was inactive.

In the case of `CC(O)C(/C=C/C=C/C(=O)O)C(C)CC(C)C(O)CC(=O)c1ccc(N)cc1` (stereo not given), the result was inactive.

Turning to `CC(/C=C/C(=O)c1ccc(N)cc1)CC(C)C(=O)O` (stereo not given), the outcome was inactive.

The next assay relates to L929. The assay is described as follows: Cytotoxicity against mouse L929 cells. The assay is classed as functional, cell-based.
`C/C(=C\C(C)CC(C)C(O)CC(=O)c1ccc(N)cc1)C(=O)O` (stereo not given): the outcome was inactive.

`CC(O)C(/C=C/C=C/C(=O)O)C(C)CC(C)C(O)CC(=O)c1ccc(N)cc1` (stereo not given): the result was inactive.

As for `CC(/C=C/C(=O)c1ccc(N)cc1)CC(C)C(=O)O` (stereo not given), the result was inactive.

A further assay concerns K562. The experiment in a line: Cytotoxicity against human K562 cells. The assay is classed as functional, cell-based.
For the compound `C/C(=C\C(C)CC(C)C(O)CC(=O)c1ccc(N)cc1)C(=O)O` (stereo not given), the result was inactive.

Regarding `CC(O)C(/C=C/C=C/C(=O)O)C(C)CC(C)C(O)CC(=O)c1ccc(N)cc1` (stereo not given), the result was inactive.

Regarding `CC(/C=C/C(=O)c1ccc(N)cc1)CC(C)C(=O)O` (stereo not given), the result was inactive.

In a further assay the test system is HeLa. The experiment in a line: Cytotoxicity against human HeLa cells. The format is functional, cell-based.
Regarding `C/C(=C\C(C)CC(C)C(O)CC(=O)c1ccc(N)cc1)C(=O)O` (stereo not given), the result was inactive.

As to `CC(O)C(/C=C/C=C/C(=O)O)C(C)CC(C)C(O)CC(=O)c1ccc(N)cc1` (stereo not given), the outcome was inactive.

Regarding `CC(/C=C/C(=O)c1ccc(N)cc1)CC(C)C(=O)O` (stereo not given), the result was inactive.
